Our source for the solubility values is ChEMBL document CHEMBL3102825, “Exploration of a series of 5-arylidene-2-thioxoimidazolidin-4-ones as inhibitors of the cytolytic protein perforin” (J Med Chem, 2013).

Usually solubility stands for how much of the substance goes into solution per volume.

The data set in a line: Aqueous solubility of the compound. The class given is physicochemical.
For `O=C1NC(=S)[N-]/C1=C/c1ccc(-c2ccc3c(c2)COC3=O)s1.[Na+]`, the concentration in solution (solubility) was 43 µg/mL.

In the case of `O=C1NC(=S)[N-]/C1=C/c1ccc(-c2ccc3c(c2)C(=O)NCC3)s1.[Na+]`, the solubility came out at 37.2 µg/mL.

In turn, `O=C1NC(=S)[N-]/C1=C/c1ccc(-c2ccc3c(c2)CCNC3=O)s1.[Na+]` showed a solubility of 1570 µg/mL. This solubility lies about 42-fold higher than the previous one.

Turning to `O=C1[N-]/C(=C/c2ccc(-c3ccc4c(c3)CNC4=O)s2)C(=O)N1.[Na+]`, the solubility was determined as 136 µg/mL.

For the compound `CC1c2cc(-c3ccc(/C=C4/[N-]C(=S)NC4=O)s3)ccc2C(=O)N1C.[Na+]` (stereo not given), the solubility came out at 1410 µg/mL.

With `O=C1NC(=S)[N-]/C1=C/c1ccc(-c2ccc3c(c2)CN(CCCO)C3=O)s1.[Na+]`, the solubility turned out to be 10200 µg/mL.

`CCOC(=O)N1Cc2cc(-c3ccc(/C=C4/[N-]C(=S)NC4=O)s3)ccc2C1=O.[Na+]` registered a solubility of 397 µg/mL.

Consider `O=C1NC(=S)[N-]/C1=C/c1ccc(-c2ccc3c(c2)CN(CCO)C3=O)s1.[Na+]`, for which the concentration in solution (solubility) came to 3430 µg/mL.

For `CN1Cc2cc(-c3ccc(/C=C4/[N-]C(=S)NC4=O)s3)ccc2C1=O.[Na+]`, the solubility amounted to 151 µg/mL. Compared with the last compound, the solubility is about 23-fold lower.

Take `O=C1NC(=S)[N-]/C1=C/c1ccc(-c2ccc3c(c2)CNC3=O)s1.[Na+]`: the solubility was 140 µg/mL.
